Reference: PubChem BioAssay AID1963962 (Molecular Pharmacology Branch, DTP, NCI, 2024)
Where “and” joins values, the source holds several entries; their conditions need not be identical. Equal values may be shown once. Blank lines part the entries; values can stand above or below the compound they belong to.

Tested on: 967376-340-R-J2-PDC multicell spheroid viability
Experiment: Anticancer human tumor 967376-340-R-J2-PDC patient-derived colon adenocarcinoma cell line growth inhibition [PI3K]
Conditions: for viability, T/C: stronger effect = lower value
Summary of the method: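 Viability of mixed-cell spheroids was determined after exposure to pairwise combinations, one partner being inavolisib, alpelisib, duvelisib or copanlisib. Highest tested concentration matched clinical Cmax where known and 10 microM where not, descending in half-log steps.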

[1] = curve of first compound, second compound 0.0316 µM
[2] = curve of first compound, second compound 0.1 µM
[3] = curve of first compound, second compound 0.316 µM
[4] = curve of first compound, second compound 1 µM
[5] = second compound 0.0316 µM, first compound 0.0316 µM
[6] = second compound 0.0316 µM, first compound 0.1 µM
[7] = second compound 0.0316 µM, first compound 0.316 µM
[8] = second compound 0.0316 µM, first compound 1 µM
[9] = second compound 0.0316 µM, first compound 3.16 µM
[10] = second compound 0.0316 µM, first compound 10 µM
[11] = second compound 0.1 µM, first compound 0.0316 µM
[12] = second compound 0.1 µM, first compound 0.1 µM
[13] = second compound 0.1 µM, first compound 0.316 µM
[14] = second compound 0.1 µM, first compound 1 µM
[15] = second compound 0.1 µM, first compound 3.16 µM
[16] = second compound 0.1 µM, first compound 10 µM
[17] = second compound 0.316 µM, first compound 0.0316 µM
[18] = second compound 0.316 µM, first compound 0.1 µM
[19] = second compound 0.316 µM, first compound 0.316 µM
[20] = second compound 0.316 µM, first compound 1 µM
[21] = second compound 0.316 µM, first compound 3.16 µM
[22] = second compound 0.316 µM, first compound 10 µM
[23] = second compound 1 µM, first compound 0.0316 µM
[24] = second compound 1 µM, first compound 0.1 µM
[25] = second compound 1 µM, first compound 0.316 µM
[26] = second compound 1 µM, first compound 1 µM
[27] = second compound 1 µM, first compound 3.16 µM
[28] = second compound 1 µM, first compound 10 µM
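Further: spheroids exposed to agents for 7 days before read-out.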
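Wherever viability, T/C is given: luminescence used as surrogate of cell viability.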

- IC50 [1]: > 10 µM
- IC50 [2]: > 10 µM
- IC50 [3]: > 10 µM
- IC50 [4]: > 10 µM
- IC50 (curve of first compound, second compound 3.16 µM): > 10 µM
- IC50 (curve of first compound, second compound 10 µM): > 10 µM
Compound: C[C@@H](NC(=O)c1ncnc(N)c1Cl)c1ncc(C(=O)Nc2cc(C(F)(F)F)c(Cl)cn2)s1 + Cc1nc(NC(=O)N2CCCC2C(N)=O)sc1-c1ccnc(C(C)(C)C(F)(F)F)c1
- viability, T/C [5]: 87.1%
- viability, T/C [6]: 88.3%
- viability, T/C [7]: 84.6%
- viability, T/C [8]: 105%
- viability, T/C [9]: 94.2%
- viability, T/C [10]: 100%
- viability, T/C [11]: 105%
- viability, T/C [12]: 77.1%
- viability, T/C [13]: 85.4%
- viability, T/C [14]: 96.7%
- viability, T/C [15]: 98.3%
- viability, T/C [16]: 97.6%
- viability, T/C [17]: 65.6%
- viability, T/C [18]: 100%
- viability, T/C [19]: 68%
- viability, T/C [20]: 99.7%
- viability, T/C [21]: 89.7%
- viability, T/C [22]: 78.7%
- viability, T/C [23]: 72.8%
- viability, T/C [24]: 80.4%
- viability, T/C [25]: 79.6%
- viability, T/C [26]: 70.1%
- viability, T/C [27]: 96.6%
- viability, T/C [28]: 76%
- viability, T/C (second compound 3.16 µM, first compound 0.0316 µM): 55%
- viability, T/C (second compound 3.16 µM, first compound 0.1 µM): 71%
- viability, T/C (second compound 3.16 µM, first compound 0.316 µM): 71.9%
- viability, T/C (second compound 3.16 µM, first compound 1 µM): 74%
- viability, T/C (second compound 3.16 µM, first compound 3.16 µM): 69.4%
- viability, T/C (second compound 3.16 µM, first compound 10 µM): 68.2%
- viability, T/C (second compound 10 µM, first compound 0.0316 µM): 56.4%
- viability, T/C (second compound 10 µM, first compound 0.1 µM): 59.9%
- viability, T/C (second compound 10 µM, first compound 0.316 µM): 62.1%
- viability, T/C (second compound 10 µM, first compound 1 µM): 54%
- viability, T/C (second compound 10 µM, first compound 3.16 µM): 61.8%
- viability, T/C (second compound 10 µM, first compound 10 µM): 54.5%

- IC50 (curve of first compound, second compound 0.00316 µM): > 10 µM
- IC50 (curve of first compound, second compound 0.01 µM): > 10 µM
- IC50 [1]: > 10 µM
- IC50 [2]: > 10 µM
- IC50 [3]: > 10 µM
- IC50 [4]: > 10 µM
Compound: CC(Cn1ccc(-c2ccc(C#N)c(Cl)c2)n1)NC(=O)c1cc(C(C)O)[nH]n1 (centres undefined) + CC(Nc1ccc2c(c1)OCCn1cc(N3C(=O)OCC3C(F)F)nc1-2)C(N)=O
- viability, T/C (second compound 0.00316 µM, first compound 0.0316 µM): 109%
- viability, T/C (second compound 0.00316 µM, first compound 0.1 µM): 112%
- viability, T/C (second compound 0.00316 µM, first compound 0.316 µM): 126%
- viability, T/C (second compound 0.00316 µM, first compound 1 µM): 93.5%
- viability, T/C (second compound 0.00316 µM, first compound 3.16 µM): 125%
- viability, T/C (second compound 0.00316 µM, first compound 10 µM): 105%
- viability, T/C (second compound 0.01 µM, first compound 0.0316 µM): 115%
- viability, T/C (second compound 0.01 µM, first compound 0.1 µM): 78.3%
- viability, T/C (second compound 0.01 µM, first compound 0.316 µM): 126%
- viability, T/C (second compound 0.01 µM, first compound 1 µM): 101%
- viability, T/C (second compound 0.01 µM, first compound 3.16 µM): 102%
- viability, T/C (second compound 0.01 µM, first compound 10 µM): 117%
- viability, T/C [5]: 82.6%
- viability, T/C [6]: 104%
- viability, T/C [7]: 101%
- viability, T/C [8]: 97.1%
- viability, T/C [9]: 93.7%
- viability, T/C [10]: 84.8%
- viability, T/C [11]: 84.5%
- viability, T/C [12]: 74.1%
- viability, T/C [13]: 75%
- viability, T/C [14]: 83.9%
- viability, T/C [15]: 85.2%
- viability, T/C [16]: 67.4%
- viability, T/C [17]: 75.7%
- viability, T/C [18]: 72.3%
- viability, T/C [19]: 76.4%
- viability, T/C [20]: 62.4%
- viability, T/C [21]: 69.4%
- viability, T/C [22]: 78.2%
- viability, T/C [23]: 59.8%
- viability, T/C [24]: 54%
- viability, T/C [25]: 66.7%
- viability, T/C [26]: 51%
- viability, T/C [27]: 61.2%
- viability, T/C [28]: 60.2%

- IC50 (compound alone, run of 06/13/2023): > 10 µM
Compound: CC(Nc1ncnc2nc[nH]c12)c1cc2cccc(Cl)c2c(=O)n1-c1ccccc1 (centres undefined)
- viability, T/C (compound 0.0316 µM): 94.5% [middle of 8 runs]
- viability, T/C (compound 0.316 µM): 89% [middle of 8 runs]
- viability, T/C (compound 1 µM): 94.5% [middle of 8 runs]

- IC50 (curve of compound): 9.93 µM and > 10 µM and 2.51 µM
Compound: CC1(C)CCC(Nc2ncc(C(F)(F)F)c(-c3c[nH]c4c(P(C)(C)=O)c(C#N)ccc34)n2)CN1 (centres undefined)
- viability, T/C (compound 0.0316 µM): 88.9% [middle of 4 runs]
- viability, T/C (compound 0.316 µM): 73.3% [middle of 4 runs]
- viability, T/C (compound 1 µM): 71.2% [middle of 4 runs]
- viability, T/C (compound 3.16 µM): 69.4% [middle of 4 runs]
- viability, T/C (compound 10 µM): 48.1% [middle of 4 runs]
